Laboratory results taken from US20260023068A1, “USE OF A FBXO42 SPECIFIC INHIBITOR IN TREATING NOTCH SIGNALING-DEPENDENT DISEASE” (WESTLAKE UNIVERSITY, priority 2022, published 2026).

Experiments:
Assay type in all cases: cell-based, human
[1] = tested on: FBXO42-mediated K63-linked polyubiquitination of RBPJ; assay: In vivo ubiquitination assay of RBPJ in transfected HEK293T cells; settings: DMSO or MLN4924, western blotting (FIG. 4K)
Description: (A) cSFB-RBPJ, hemagglutinin-ubiquitin (HA-Ub) and Myc-FBXO42 WT were cotransfected into HEK293T cells as indicated and treated with or without MG132 for 4 h. The cell lysates were incubated with S beads and analyzed by western blotting for RBPJ polyubiquitination detection. (B) Immunoprecipitated endogenous RBPJ products from WT and FBXO42 KO cells were immunoblotted for Ub. (C) cSFB-RBPJ, hemagglutinin-ubiquitin (HA-Ub) and Myc-FBXO42 WT or AF mutant were cotransfected into HEK293T cells. The cell lysate was collected and analyzed for RBPJ polyubiquitination. (D) HEK293T cells were transfected with cSFB-RBPJ, Myc-FBXO42 and HA-Ub with or without FLAG-NICD1 overexpression. The cell lysates were incubated with S beads and analyzed by western blotting for RBPJ polyubiquitination detection. […] The degree of RBPJ polyubiquitination was evaluated as described above. […] The cell lysates were incubated with S beads and analyzed by western blotting for RBPJ polyubiquitination detection. […] (J) Quantitation of the results shown in (I). […] The cell lysates were analyzed for RBPJ ubiquitination. […] (P) Efficiency of RBPJ short interfering RNAs (siRNAs) detected via western blotting. […] Quantitative data are presented as mean±SEM. P values were calculated using two-tailed Student's t-tests or ANOVA for multiple comparison. *P<0.05, **P<0.01, ***P<0.001, ##P<0.01 vs. FBXO42. […]

[2] = tested on: Notch target genes HES1, HES5 and c-MYC; assay: qPCR of Notch target genes in HEK293T cells; settings: mRNA, qPCR (FIG. 4O)
JURKAT and HSB2 cells = assay: Cell viability, cell counting kit-8 assay; settings: JURKAT and HSB2, concentration gradient, 36 h, CCK-8 (FIG. 12L)
Description: (§1) FBXO42-KO cells were rescued with WT FBXO42 or F-box deletion mutant and were used in the following studies. (A-C) The mRNA levels of Notch target genes in the treated HEK293T (A), JURKAT (B) and HSB2 (C) cells were determined by qPCR. (D-G) The invasion abilities of the treated JURKAT (D) and HSB2 (F) cells were evaluated using a 3D culture system with Matrigel. Scale bars, 50 μm. The respective average diameter of the spheres in D and F was summarized, respectively (E and G). (H-K) Anchorage-independent growth of the rescued JURKAT (H) and HSB2 (J) cells was measured using a soft agar colony formation assay. The number of colonies in H and J was counted and summarized, respectively (I and K). (L) JURKAT and HSB2 cells were treated with MLN4924 in a concentration-gradient manner for 36 h and then evaluated for the cell viability using cell counting kit-8 assay. (M and N) The expression of Notch target genes in MLN4924-treated JURKAT (M) and HSB2 (N) cells were determined by qPCR. (O-R) Anchorage-independent growth of MLN4924-treated JURKAT (0) and HSB2 (Q) cells was measured using soft agar colony formation assays. The number of colonies was counted and summarized (P and R). (A-R, n=3) The data are shown as the mean±SEM from the independent experiments. P values were calculated using one-way ANOVA for multiple comparisons or two-tailed Student's t-tests. *P<0.05, ** P<0.01, *** P<0.001.

[3] = tested on: Notch target genes in JURKAT and HSB2 cells; assay: qPCR of Notch target genes in leukemia cells; settings: JURKAT and HSB2, qPCR (FIGS. 12M and 12N)
Description: as §1, with “P<0.001. […]” for “P<0.001.”

## NS(=O)(=O)OC[C@@H]1C[C@@H](n2ccc3c(N[C@H]4CCc5ccccc54)ncnc32)C[C@@H]1O [MLN4924]
[1]
  FBXO42-mediated K63-linked polyubiquitination of RBPJ: effectively abrogated
[2]
  expression of Notch target genes HES1, HES5 and c-MYC: suppressed
JURKAT and HSB2 cells
  cell viability of leukemia cells: diminished
[3]
  Notch target gene expression of leukemia cells: diminished
